Experimental data as given in patent US20230110113A1, “FGFR TYROSINE KINASE INHIBITORS FOR THE TREATMENT OF HIGH-RISK NON-MUSCLE INVASIVE BLADDER CANCER” (Janssen Pharmaceutica NV, priority 2020, published 2023).

Assays:
[1] = system: EJ28 bladder cancer cell line (FGFR status unknown); details: EJ28, FGFR3 status unknown
[2] = system: UM-UC-1 bladder cancer cell line (WT); details: MTT
[3] = system: T24 bladder cancer cell line (WT); details: T24, FGFR3 WT

Structure (SMILES): COc1cc(OC)cc(N(CCNC(C)C)c2ccc3ncc(-c4cnn(C)c4)nc3c2)c1 [erdafitinib, N-(3,5-dimethoxyphenyl)-N′-(1-methylethyl)-N-[3-(1-methyl-1H-pyrazol-4-yl)quinoxalin-6-yl]ethane-1,2-diamine]
- Sensitivity of cell line to erdafitinib (in words) [1]: not sensitive
- Cell viability max effect [2]: 80%
- Sensitivity of cell line to erdafitinib (in words) [3]: not sensitive
